From US11078175B2, “Substituted dihydrobenzofuran compounds and their use as synergists” (ENDURA S.P.A., priority 2015, dated 2021) come the findings set out here.

The target of data set [1] is T1, FE4 Myzus persicae esterases (Myzus persicae, UniProt P35502).
T1 construct: would be utilised for the purified esterases from aphids; from tissue; host or cells: aphids (Myzus persicae)
T1 sequence (P35502 24-564): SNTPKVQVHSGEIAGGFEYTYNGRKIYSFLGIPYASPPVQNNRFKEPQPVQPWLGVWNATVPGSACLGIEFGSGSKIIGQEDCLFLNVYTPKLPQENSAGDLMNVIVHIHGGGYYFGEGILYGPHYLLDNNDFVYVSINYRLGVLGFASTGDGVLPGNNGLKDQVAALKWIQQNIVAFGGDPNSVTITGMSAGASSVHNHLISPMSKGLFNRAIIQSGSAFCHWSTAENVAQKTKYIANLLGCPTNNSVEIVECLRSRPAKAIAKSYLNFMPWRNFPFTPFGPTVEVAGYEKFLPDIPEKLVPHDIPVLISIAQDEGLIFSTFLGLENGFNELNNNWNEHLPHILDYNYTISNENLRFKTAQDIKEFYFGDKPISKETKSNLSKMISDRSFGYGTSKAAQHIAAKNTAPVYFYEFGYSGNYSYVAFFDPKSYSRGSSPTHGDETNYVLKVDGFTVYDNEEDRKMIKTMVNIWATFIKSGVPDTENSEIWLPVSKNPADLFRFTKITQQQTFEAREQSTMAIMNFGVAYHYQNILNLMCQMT
Nature of the data set: Inhibition of esterase enzymes, 4-nitrophenyl acetate substrate with purified FE4. It is filed as biochemical. The note with it: 2.5 μL of 10 mM compound in acetone added to 50 μL, 10 min incubation, substrate 4-nitrophenyl acetate 0.8 mM final, acetone-only control. Here is the method:
It was envisaged, therefore, that the ‘esterase intereference assay’ (Khot et al., 2008) would be utilised for the purified esterases from aphids. Various esterase substrates were assessed to find one suitable of monitoring inhibition in an insect homogenate. The Myzus persicae resistance associated esterase, FE4, was used.
From the literature (Philippou et al., 2013) it is known that 1-naphthyl acetate is not suitable for this assay. Instead, 4-nitrophenyl acetate was used. A 10 mM pNA stock was prepared in acetone and added to 0.02 M phosphate buffer pH 7.0 (final concentration 2 mM). The comparison was made with 6 PBO analogues of variable efficacy.
For the assay 10 μL of purified FE4 was diluted to a total volume of 50 μL by the addition of 0.02 M phosphate buffer, pH 7.0 in individual wells of a microplate (maxisorb, NUNC). To each well, 2.5 μL of 10 mM of the compound of Example 1 and of Example 2 in acetone was added and incubated for 10 mins, with acetone only used as a control. Following incubation, 100 μL of 0.02 M phosphate buffer, pH 7.0 and 100 μL of 2 mM 4-nitrophenyl acetate was added (final volume in well 250 μL, final substrate concentration 0.8 mM). Enzyme activity was read at 405 nm in a Spectramax Tmax for 5 min, with readings taken every 5 secs. The rate (mOD min^−1) was calculated by the integrated software, Softmax Pro v.5.4.

A further data set relates to Bemisia tabaci CYP6CM1. The following applies: recombinant CYP6CM1; 3 μL of 10 mM compound stock in acetone added to 50 μL enzyme; 10 min incubation at room temperature; substrate 7-ethoxycoumarin; acetone-only control.

Experimental for Bemisia tabaci CYP6CM1: Ability of the compounds of the invention to inhibit oxidative enzymes (P450), a major mechanism conferring resistance to xenobiotics, was measured using recombinant enzymes corresponding to CYPCM1 from Bemisia tabaci.
Diluted recombinant enzyme (50 μL) was mixed with 3 μL of a.m compounds stock solutions, with acetone only used as a control. After 10 min incubation at room temperature, 80 μL of 0.125 mM 7-ethoxycoumarin was added, followed by 10 μL 9.6 mM NADPH (nicotinamide adenine dinucleotide phosphate) in 0.1 M sodium phosphate, pH 7.8, and 0-deethylation activity monitored as above. A PBO solution (10 mM) was prepared in the same way as a comparison.

For orientation: remaining activity means the share of the control activity or signal that is left under treatment. Low readings indicate little activity left, high ones much activity left. In data set [1], `CCCCOCCOCCOCc1cc(CCC)cc2c1OCC2` [Compound of Example 1, 5-propyl-7-[[2-(2-Butoxyethoxy)ethoxy]methyl]-2,3-dihydrobenzo furan] came in with a remaining activity at 10000 µM (stock) of 33.2%. Besides, in the data set with Bemisia tabaci CYP6CM1, the “% activity remaining” value is on record as 38.47%.

Regarding `CCCCCCc1cc2c(c(COCCOCCOCCCC)c1)OCC2` [Compound of Example 2, 5-n-hexyl-7-[[2-(2-Butoxyethoxy)ethoxy]methyl]-2,3-dihydrobenzo furan], the remaining activity at 10000 µM (stock) in data set [1] came to 40.6%. Further, the “% activity remaining” value in the data set on Bemisia tabaci CYP6CM1 is 86.22%.
